Measured values reported in PubChem BioAssay (NCI).
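1) Cells in 96-well plates. 2) Compound, 48 h, 5 concentrations. 3) Linear interpolation between surrounding doses. 4) Unreached endpoint = highest concentration. GI50: concentration for 50% inhibition of growth. TGI: total growth inhibition.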

Legend:
Test in all cases: growth of human tumour cells (NCI), 48 h
[1] = system: NCI-H460 lung
[2] = system: DU-145 prostate
[3] = system: OVCAR-5 ovarian
[4] = system: NCI/ADR-RES ovarian
[5] = system: EKVX NSCLC
[6] = system: PC-3 prostate
[7] = system: HL-60(TB) leukemia
[8] = system: SR leukemia
[9] = system: LOX IMVI melanoma

| SMILES | TGI [1] [µM] | TGI [2] [µM] | TGI [3] [µM] | TGI [4] [µM] | TGI [5] [µM] | TGI [6] [µM] | TGI [7] [µM] | TGI [8] [µM] | TGI [9] [µM] | GI50 [1] [µM] | GI50 [2] [µM] | GI50 [4] [µM] | GI50 [6] [µM] | GI50 [7] [µM] | GI50 [8] [µM] |
| --- | --- | --- | --- | --- | --- | --- | --- | --- | --- | --- | --- | --- | --- | --- | --- |
| O=[N+]([O-])c1ccc(Cl)cc1-n1nc(-c2ccccc2)cc1-c1ccccc1 | > 100 | > 100 | > 100 | > 100 | > 100 | > 100 | > 100 | > 100 |  |  |  |  |  |  |  |
| CC(=O)OC1/C(=C/c2ccc([N+](=O)[O-])cc2)C[C@H]2[C@@H]3CC=C4C[C@@H](OC(C)=O)CC[C@]4(C)[C@H]3CC[C@]12C (stereo partly drawn) | > 100 | > 100 | > 100 | > 100 | > 100 | > 100 | 13.3 | > 20.7 | > 100 |  |  |  |  |  |  |
| CC(=O)N1c2ccccc2C(C)(C)OC1C(Cl)(Cl)Cl (stereo not drawn) | > 100 | > 100 | > 100 | > 100 | > 100 | > 100 | 36.7 |  |  |  |  |  |  |  |  |
| COC(=O)[C@@H]1C=C[C@@H](C#N)n2c(=O)n(-c3ccccc3)c(=O)n21 |  | > 100 | > 100 | 68 | > 100 |  |  | 47.4 | 48.4 |  |  |  |  |  |  |
| O=C(O)CCC(NC(=O)c1ccc(Nc2nc3ccccc3nc2C(=O)O)cc1)C(=O)O (stereo not drawn) |  | > 100 | > 100 | > 100 | > 100 |  | > 100 | > 100 |  |  |  |  |  |  |  |
| CNNC1=NS(=O)(=O)c2cc(C)c(Cl)cc2S1 | > 10 | > 10 | > 10 | > 10 | > 10 | > 10 | > 10 |  | > 10 |  |  |  |  |  |  |
| N=C(/C=C/c1ccc(-c2cn3cc(/C=C/C(=N)N4CCCC4)ccc3n2)cc1)N1CCCC1 | > 100 | > 100 | > 100 | > 100 | > 100 | > 100 | > 100 | > 100 |  |  |  |  |  |  |  |
| CC(O)c1c2c(cc3c1CC1(C3)Cc3cc4c(c(C(C)O)c3C1)CCC4)CCC2 (stereo not drawn) |  |  | 50.2 | 70.4 | 96.2 | 34.9 | 21.2 | 29.8 | 32.8 |  |  |  |  |  |  |
| Cc1c2c(c(C)n1-c1ccccc1)C(=O)N(CCSC(=N)N)C2=O | > 100 | > 100 | > 100 | > 100 | > 100 | > 100 | > 100 |  |  |  |  |  |  |  |  |
| Cc1ccc(/C=C2\CN(C)CC3C(c4ccc(C)cc4)=C(C#N)C(=O)NC23)cc1 (stereo not drawn) | > 50 | > 50 | > 50 | > 50 | > 50 | > 50 |  |  | > 50 |  |  |  |  |  |  |
| O=S(=O)(c1cc(Cl)ccc1Cl)N1CCN(c2ccc(Cl)c(Cl)c2)CC1 |  | > 100 | > 100 |  | > 100 | > 100 | > 100 | > 100 | > 100 |  |  |  |  |  |  |
| COc1c(Cl)ccc(Cl)c1C(=O)NNC(=O)c1c(Cl)c(Cl)c(Cl)c(Cl)c1-c1nc2ccc(C(=O)c3ccccc3)cc2[nH]1 |  | > 100 | > 100 | > 100 | > 100 | > 100 | > 100 | > 100 | > 100 |  |  |  |  |  |  |
| CC1=C2C(=O)O[C@@H](c3ccoc3)[C@]2(C)CCC1=O | > 100 | > 100 | > 100 | > 100 | > 100 | > 100 |  | > 100 | > 100 |  |  |  |  |  |  |
| C[C@H](CCC1=NCCN1)[C@H]1CC[C@H]2[C@@H]3[C@H](O)C[C@@H]4C[C@H](O)CC[C@]4(C)[C@H]3CC[C@]12C | 24.3 | 27.3 | 27.5 | > 100 | 32.3 | 21 |  |  | 22.8 |  |  |  |  |  |  |
| CC(=O)Oc1ccccc1[C@H]1CC(=O)C[C@H](c2ccccc2OC(C)=O)C12C(=O)c1ccccc1C2=O | 60.3 | > 100 | > 100 | > 100 |  | > 100 | > 100 | > 100 |  |  |  |  |  |  |  |
| N#C/C(=C1\N=C(c2ccccc2O)Oc2ccccc21)c1ccc([N+](=O)[O-])cc1 | > 100 | > 100 | > 100 | > 100 | > 100 | > 100 | > 100 |  | > 100 |  |  |  |  |  |  |
| O=c1[nH]c2cc(C(F)(F)F)ccc2nc1Cc1ccccc1 | > 100 | > 100 |  | > 100 | > 100 | > 100 | > 100 | > 100 | > 100 |  |  |  |  |  |  |
| O=C(O)c1cccc(S(=O)(=O)NN2C(=O)CSC2c2ccccc2)c1 (stereo not drawn) | > 100 | > 100 | > 100 |  | > 100 | > 100 | > 100 | > 100 | > 100 |  |  |  |  |  |  |
| Cc1c(C(=O)CSc2nc3ccc([N+](=O)[O-])cc3[nH]2)c(=O)n(-c2ccccc2)n1C | > 100 |  | > 100 |  |  |  | > 100 | > 100 | > 100 |  |  |  |  |  |  |
| COc1cc([C@@H]2c3cc4c(cc3[C@H](OC3OC5COC(C(C)C)OC5C(O)C3O)C3COC(=O)[C@@H]32)OCO4)cc(OC)c1O (stereo partly drawn) | 10.2 |  | 25 | > 100 | 47.5 | 14.4 | > 100 | > 100 | 30 |  |  |  |  |  |  |
| CC(C)C1CC=NN1C(=O)OC(C)(C)C (stereo not drawn) | > 100 | > 100 | > 100 | > 100 | > 100 |  | > 100 | > 100 | > 100 |  |  |  |  |  |  |
| CC(=O)Nc1ccc(Nc2cc(=O)n(C)c(=O)[nH]2)cc1 | > 100 |  | > 100 | > 100 | > 100 | > 100 |  | > 100 | > 100 |  |  |  |  |  |  |
| CC[C@@H]1CN2CCC1C[C@@H]2C(O)c1ccnc2ccc(OCCN3CCN(CCOc4ccc5nccc(C(O)[C@@H]6C[C@@H]7CCN6C[C@@H]7CC)c5c4)CC3)cc12 (stereo partly drawn) | 38.4 | 31.8 | 32.9 | > 100 | 31.2 | 30.3 | 47.6 |  | 38.5 |  |  |  |  |  |  |
| COc1cc(C2CC(c3cccc(Nc4ccncc4)c3)=NN2c2cc(Cl)cc(Cl)c2)cc(OC)c1OC (stereo not drawn) | 3.28 | 3.08 |  | 3.53 |  | 3.14 | 3.65 | 3.72 |  | 1.73 | 1.68 | 1.84 | 1.57 | 1.53 | 1.64 |
| ClC(Cl)(Cl)C1CCOC1n1nc2ccccc2n1 (stereo not drawn) | > 100 | > 100 | > 100 | > 100 | > 100 | > 100 | > 100 | > 100 |  |  |  |  |  |  |  |
| COc1ncnc2c1cnn2Cc1cn(COCC(O)CO)nn1 (stereo not drawn) |  | > 100 | > 100 | > 100 | > 100 | > 100 | > 100 | > 100 | > 100 |  |  |  |  |  |  |
